Assay results published in patent US7786141B2 (Vertex Pharmaceuticals Incorporated, priority 2004, dated 2010).
Like-named read-outs stand apart in the source and are kept apart here.

Columns and labels:
[1] = target: T1, M4 muscarinic receptor (Homo sapiens, UniProt P08173); test: Functional mobilization of intracellular calcium (FLIPR) in M4-CHO cells; format: cell-based
T1 construct: expressed in transfected cells; host or cells: CHO (M4-CHO)
T1 sequence (P08173 1-479): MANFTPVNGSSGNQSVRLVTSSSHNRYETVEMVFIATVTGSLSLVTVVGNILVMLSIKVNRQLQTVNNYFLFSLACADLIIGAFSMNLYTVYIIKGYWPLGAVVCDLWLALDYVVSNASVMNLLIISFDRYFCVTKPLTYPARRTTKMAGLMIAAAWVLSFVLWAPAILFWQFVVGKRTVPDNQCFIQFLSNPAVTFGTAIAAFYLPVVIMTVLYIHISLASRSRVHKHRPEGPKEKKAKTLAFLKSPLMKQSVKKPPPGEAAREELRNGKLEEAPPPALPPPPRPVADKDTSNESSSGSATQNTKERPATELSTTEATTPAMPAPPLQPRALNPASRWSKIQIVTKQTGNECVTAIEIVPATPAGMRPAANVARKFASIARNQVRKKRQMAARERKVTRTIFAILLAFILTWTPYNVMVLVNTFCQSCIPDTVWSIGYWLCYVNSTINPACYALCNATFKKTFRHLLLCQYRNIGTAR
Summary of the method: (§1)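 CHO cells stably expressing human M1 or M4 receptor were loaded with Fluo-3 AM (or Calcium 3 dye) in Hepes-buffered saline, pH 7.4, with 1 mM probenecid, 0.5% final DMSO. Agonist mode: compound added directly; antagonist mode: 15 min preincubation before carbachol at EC80. FLIPR fluorescence recorded 60 sec.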

[2] = target: T2, M1 muscarinic receptor (Homo sapiens, UniProt P11229); test: Functional mobilization of intracellular calcium (FLIPR) in M1-CHO cells; format: cell-based
T2 construct: expressed in transfected cells; host or cells: CHO (M1-CHO)
T2 sequence (P11229 1-460): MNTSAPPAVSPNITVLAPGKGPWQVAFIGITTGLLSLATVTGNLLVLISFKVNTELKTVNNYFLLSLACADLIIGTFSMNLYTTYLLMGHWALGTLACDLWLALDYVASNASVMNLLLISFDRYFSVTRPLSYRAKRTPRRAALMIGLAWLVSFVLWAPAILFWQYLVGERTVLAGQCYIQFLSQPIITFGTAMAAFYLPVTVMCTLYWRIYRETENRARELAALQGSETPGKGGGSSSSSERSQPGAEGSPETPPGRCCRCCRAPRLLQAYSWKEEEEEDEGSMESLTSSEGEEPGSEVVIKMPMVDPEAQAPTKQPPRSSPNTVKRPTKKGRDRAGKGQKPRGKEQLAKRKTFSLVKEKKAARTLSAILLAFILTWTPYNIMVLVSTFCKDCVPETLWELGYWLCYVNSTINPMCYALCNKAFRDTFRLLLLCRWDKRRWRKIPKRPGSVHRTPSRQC
Summary of the method: as §1

[3] = M4 receptor, calcium mobilization
[4] = M4 receptor, calcium mobilization, read-out: M4 Efficacy
[5] = M1 receptor, calcium mobilization
[6] = M1 receptor, calcium mobilization, read-out: M1 Efficacy
[7] = Table 4, 100% efficacy is the maximum response obtained with the Carbachol control
[8] = Table 4, modulating M4 receptor
[9] = Table 4, modulating M1 receptor

Compound	M4 Activity [1, 3]	Emax [1, 4]	M1 Activity [2, 5]	Emax [2, 6]	Emax [1, 7]	M4 Activity [1, 8]	Emax [2, 7]	M1 Activity [2, 9]	other results
Clc1ccc2c(c1)C1(CCN(C3CCCCCC3)CC1)CN2 [compound 333]	x (activity was measured to be greater than 1.0 μM)	< 65%	x (activity was measured to be greater than 1.0 μM)	< 65%	–	–	–	–	–
CN(C)C(=O)N1CC2(CCN(C3CCN(C(=O)OCCF)CC3)CC2)c2cc(F)ccc21 [compound 48]	xx (activity was measured to be between 0.1 μM and 1.0 μM)	65 to 85%	xxx (activity was measured to be less than 0.1 μM)	> 85%	–	–	–	–	–
CCOC(=O)N1CCC(N2CCC3(CC2)CN(C(=O)OC(C)C)c2ccc(F)cc23)CC1 [compound 145]	x (activity was measured to be greater than 1.0 μM)	> 85%	xxx (activity was measured to be less than 0.1 μM)	> 85%	–	–	–	–	–
CCOC(=O)N1C2CCC1CC(N1CCC3(CC[C@@H](NC(C)=O)c4ccccc43)CC1)C2 (some centres unmarked) [compound 669]	–	–	–	–	25 to 100%	xxx (activity was measured to be less than 2.0 μM)	25 to 100%	xxx (activity was measured to be less than 2.0 μM)	–
CC(=O)N[C@H]1CCC2(CCN([C@H]3CC4CC[C@H](C4)C3)CC2)c2ccccc21 [compound 861]	–	–	–	–	25 to 100%	–	25 to 100%	–	M4 Activity ([1]; Table 4, M4 receptor, calcium mobilization (FLIPR)): xxx (activity was measured to be less than 2.0 μM); M1 Activity ([2]; Table 4, M1 receptor, calcium mobilization (FLIPR)): xxx (activity was measured to be less than 2.0 μM)
CCCOC(=O)N1CCC(N2CCC3(CC2)CN(C(C)=O)c2ccc(F)cc23)CC1 [compound 79]	x (activity was measured to be greater than 1.0 μM)	< 65%	xx (activity was measured to be between 0.1 μM and 1.0 μM)	< 65%	–	–	–	–	–
COCCOC(=O)N1C2CCC1CC(N1CCC3(CC1)COc1ccc(F)cc13)C2 (centres unmarked) [compound 378]	–	–	–	–	–	–	–	–	EC50 ([1]; M4-CHO cells, calcium mobilization (FLIPR)): > 1000 nM; Emax ([1]; M4-CHO cells, calcium mobilization (FLIPR), read-out: M4 Efficacy): 65 to 85%; EC50 ([2]; M1-CHO cells, calcium mobilization (FLIPR)): 100 to 1000 nM; Emax ([2]; M1-CHO cells, calcium mobilization (FLIPR), read-out: M1 Efficacy): 65 to 85%
COC(=O)N1CCC(N2CCC3(CC2)CN(C(C)=O)c2ccc(C)cc23)CC1 [compound 312]	x (activity was measured to be greater than 1.0 μM)	< 65%	x (activity was measured to be greater than 1.0 μM)	< 65%	–	–	–	–	–
COCCOC(=O)N1CCC(N2CCC3(CC2)CN(CCOC)c2ccc(F)cc23)CC1 [compound 658]	–	–	–	–	25 to 100%	xxx (activity was measured to be less than 2.0 μM)	25 to 100%	xxx (activity was measured to be less than 2.0 μM)	–
CCOC(=O)N1CCC(N2CCC3(CC2)CN(C(C)=O)c2cccc(C(F)(F)F)c23)CC1 [compound 615]	–	–	–	–	< 25%	xx (activity was measured to be between 2.0 μM and 5.0 μM)	25 to 100%	xxx (activity was measured to be less than 2.0 μM)	–
C#Cc1ccc2c(c1)C1(CCN(C3CCN(C(=O)OCC)CC3)CC1)CN2C(C)=O [compound 563]	–	–	–	–	25 to 100%	xxx (activity was measured to be less than 2.0 μM)	> 100%	xxx (activity was measured to be less than 2.0 μM)	–
CC(=O)N[C@H]1CC2(CCN(CC3CC4C=CC3C4)C2)c2ccc(F)cc21 (some centres unmarked) [compound 692]	–	–	–	–	25 to 100%	xxx (activity was measured to be less than 2.0 μM)	25 to 100%	xxx (activity was measured to be less than 2.0 μM)	–
CN(C)C(=O)N1CC2(CCN(C3CC4CCC(C3)N4C(=O)O[C@H]3CCOC3)CC2)c2cc(F)ccc21 (some centres unmarked) [compound 130]	xx (activity was measured to be between 0.1 μM and 1.0 μM)	< 65%	xxx (activity was measured to be less than 0.1 μM)	< 65%	–	–	–	–	–
CCOC(=O)C1CCC(N2CCC3(CC2)CN(C(C)=O)c2ccc(F)cc23)CC1 (centres unmarked) [compound 228]	x (activity was measured to be greater than 1.0 μM)	< 65%	x (activity was measured to be greater than 1.0 μM)	< 65%	–	–	–	–	–
